Results taken from US20060183714A1, “3-Alpha-glycosyl alpha, alpha-trehalose compound, process for producing the same, and use” (priority 2003, published 2006).

Key:
[1] = aminocarbonyl (Maillard) reaction of the saccharide product; type: physicochemical; details: product as obtained
[2] = reducibility of the saccharide product; type: physicochemical; details: product as obtained

| Compound | aminocarbonyl reaction [1] | reducibility [2] |
| --- | --- | --- |
| OC[C@H]1O[C@H](O[C@H]2O[C@H](CO)[C@@H](O)[C@H](O[C@H]3O[C@H](CO)[C@@H](O)[C@H](O)[C@H]3O)[C@H]2O)[C@H](O)[C@@H](O)[C@@H]1O [Example 5, 3-α-glucosyl α,α-trehalose] | hardly causes aminocarbonyl reaction | substantially no reducibility |
| OC[C@H]1O[C@H](OC[C@H]2O[C@H](O[C@@H]3[C@@H](O)[C@@H](O[C@H]4O[C@H](CO)[C@@H](O)[C@H](O)[C@H]4O)O[C@H](CO)[C@H]3O)[C@H](O)[C@@H](O)[C@@H]2O)[C@H](O)[C@@H](O)[C@@H]1O [Example 3, 3-α-isomaltosyl α,α-trehalose] | hardly causes amino carbonyl reaction | substantially no reducibility |
